According to paper PMC9739180, “Discovery of a Flavonoid FM04 as a Potent Inhibitor to Reverse P-Glycoprotein-Mediated Drug Resistance in Xenografts and Improve Oral Bioavailability of Paclitaxel” (International Journal of Molecular Sciences, 2022):

Columns and labels:
[1] = test system: human melanoma MDA435/LCC6MDR xenograft; test: In vivo efficacy in human melanoma MDA435/LCC6MDR xenograft; parameters: species or system Balb/c nude mice
Description: The treatment was given every other day for 12 times (q2d × 12) from day 0 to day 22. There were four treatment groups including (1) control: no treatment, (2) PTX alone (12 mg/kg, I.V.), (3) PTX alone (24 mg/kg, I.V.) and (4) combination treatment: FM04 (28 mg/kg, I.P.,−1 h) + PTX (12 mg/kg, I.V.).
Balb/c nude mice were subcutaneously xenografted with LCC6MDR. The treatment groups included (1) control—no treatment, (2) PTX (12 mg/kg, I.V.) alone, (3) PTX (24 mg/kg, I.V.) alone and (4) co-treatment: FM04 (28 mg/kg, I.P.) was injected 1 hr prior to PTX (12 mg/kg, I.V.). (A) tumor volume and (B) body weight were monitored throughout the treatment. The treatment was given to mice every other day for 12 times (q2d × 12) and indicated as an arrow. […] (C) Tumor-inhibition % on day 34 and tumor-doubling time after each treatment were determined. Number of animal deaths was monitored during the treatment. For the tumor volume at each time point, statistical analysis was conducted by one-way-ANOVA between co-treatment group and PTX alone treatment, * p < 0.05. /: not applicable.
The LCC6MDR tumor xenograft model was studied previously in [24]. Female Balb/c nude mice (4–6 week-old) were subcutaneously inoculated with 5 × 10^7cells of P-gp overexpressing LCC6MDR and allowed to develop tumor. Treatment began when a solid tumor of 150–200 mm^3 was formed. Tumor-bearing mice were randomized into four groups with 7–8 mice in each group: (1) control group—no treatment, (2) PTX alone (12 mg/kg, I.V.), (3) PTX alone (24 mg/kg, I.V.) and (4) co-treatment: FM04 (28 mg/kg, I.P.) was injected 1 hr before PTX (12 mg/kg, I.V.) administration. Tumor growth was measured by an electronic caliper on the injection day and the tumor volume was calculated using the following formula: Estimated tumor volume (mm^3)=l×w^2/2

[2] = test system: human melanoma MDA435/LCC6 xenograft; test: In vivo efficacy of oral co-administration in human melanoma MDA435/LCC6 xenograft; settings: PTX 12 mg/kg I.V., (q1d × 4) × 2 rounds
Description: The treatment was given daily four times and two rounds on days 0, 1, 2, 3, 6, 7, 8 and 9 [(q1d × 4) × 2 rounds].
The treatment was given to mice every day for 4 times and 2 rounds [(q1d × 4) x 2 rounds] and indicated as an arrow.
LCC6 cells at 1 × 10^6 were injected intraperitoneally (I.P.) to allow ascite development for cell adaptation in vivo. Aspirated ascite was then injected S. C. to nude mice for the development of solid tumors as stock. These solid tumors were excised and trimmed into 1 mm^3 cubes for constructing subsequent S.C. xenografts. The study begun when these xenografts were confirmed to bear a tumor at 100–120 mm^3. FM04 (22 or 45 mg/kg) was co-administered orally with PTX (40, 60, 70 or 80 mg/kg). The treatment schedule was set to once a day for four times in two cycles (q1d × 4, 2 cycles). Tumor volume and body weight changes were monitored throughout the experiment. Animals with a body weight loss > 15% during treatment for more than 3 consecutive days were considered to be treatment-induced toxicity. All animals were sacrificed on day 30. Statistical analysis was performed by using one-way ANOVA (*, p < 0.05; **, p < 0.01; ***, p < 0.001).

MRP1 = target: T1, MRP1 (Homo sapiens, UniProt P33527); test: MRP1-modulating activity in 2008/MRP1 cells (MTS); format: cell-based
T1 construct: expressed in transfected cells; host or cells: 2008/MRP1 (human ovarian cancer)
T1 sequence (P33527 whole entry): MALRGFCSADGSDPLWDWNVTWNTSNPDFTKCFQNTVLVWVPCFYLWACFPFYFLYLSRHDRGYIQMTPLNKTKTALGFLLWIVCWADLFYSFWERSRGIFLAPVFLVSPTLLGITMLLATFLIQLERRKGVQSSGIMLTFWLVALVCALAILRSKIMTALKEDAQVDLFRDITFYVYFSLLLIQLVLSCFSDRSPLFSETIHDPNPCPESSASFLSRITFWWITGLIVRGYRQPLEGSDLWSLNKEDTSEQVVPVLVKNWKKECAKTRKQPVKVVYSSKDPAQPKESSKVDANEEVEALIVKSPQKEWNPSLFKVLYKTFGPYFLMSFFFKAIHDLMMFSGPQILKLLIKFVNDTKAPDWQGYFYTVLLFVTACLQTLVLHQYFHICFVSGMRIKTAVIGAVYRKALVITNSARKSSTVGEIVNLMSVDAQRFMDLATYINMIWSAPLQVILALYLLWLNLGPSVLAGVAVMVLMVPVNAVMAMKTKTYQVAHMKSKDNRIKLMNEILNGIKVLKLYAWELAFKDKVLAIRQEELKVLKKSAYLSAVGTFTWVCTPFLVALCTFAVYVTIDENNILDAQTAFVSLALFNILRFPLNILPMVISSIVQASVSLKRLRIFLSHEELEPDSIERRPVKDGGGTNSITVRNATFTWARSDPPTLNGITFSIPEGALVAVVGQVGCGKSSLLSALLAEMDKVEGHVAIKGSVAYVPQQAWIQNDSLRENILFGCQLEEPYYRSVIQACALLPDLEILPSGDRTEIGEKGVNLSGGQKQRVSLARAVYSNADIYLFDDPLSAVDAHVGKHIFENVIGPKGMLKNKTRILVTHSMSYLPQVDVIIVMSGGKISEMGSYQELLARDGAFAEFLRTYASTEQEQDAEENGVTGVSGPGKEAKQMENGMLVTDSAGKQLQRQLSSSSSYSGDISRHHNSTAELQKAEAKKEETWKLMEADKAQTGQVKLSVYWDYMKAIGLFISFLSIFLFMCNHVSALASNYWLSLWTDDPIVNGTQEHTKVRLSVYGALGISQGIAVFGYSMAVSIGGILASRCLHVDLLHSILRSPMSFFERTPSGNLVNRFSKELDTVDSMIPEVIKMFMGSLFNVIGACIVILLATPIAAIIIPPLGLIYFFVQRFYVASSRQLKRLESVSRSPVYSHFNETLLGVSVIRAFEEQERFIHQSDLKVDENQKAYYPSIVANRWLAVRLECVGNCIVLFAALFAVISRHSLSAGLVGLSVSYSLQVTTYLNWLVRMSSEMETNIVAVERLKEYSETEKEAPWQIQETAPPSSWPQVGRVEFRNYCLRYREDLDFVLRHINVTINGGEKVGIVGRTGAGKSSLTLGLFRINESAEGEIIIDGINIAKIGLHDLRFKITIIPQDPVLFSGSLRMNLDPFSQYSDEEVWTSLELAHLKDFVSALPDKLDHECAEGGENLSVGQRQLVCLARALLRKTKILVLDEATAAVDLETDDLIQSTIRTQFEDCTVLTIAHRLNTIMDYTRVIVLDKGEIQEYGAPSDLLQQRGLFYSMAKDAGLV
Description: The final volume in each well of the 96-well plate was 200 μL. The plate was then incubated for 5 days at 37 °C. The cell viability was determined using an MTS assay as reported previously.

[3] = Cytotoxicity assay (MTS, 3 days), LCC6; format: cell-based; settings: human, LCC6 cells
Description: To each well of 96-well plate, 10,000 cells of LCC6, LCC6MDR or L929 were incubated with different concentrations of FM04 (0, 0.4, 1.2, 3.7, 11, 33 and 100 μM). The final volume in each well of 96-well plate was 100 μL and the plate was incubated for 3 days at 37 °C. The cell viability was determined using MTS assay as reported previously.

CYP3A4 = target: T2, CYP3A4 (Homo sapiens, UniProt P08684); test: PTX metabolism in human liver microsomes: p3-OHP formation; format: in vitro ADME; settings: HLM
T2 construct: tissue Research Institute for Liver Diseases (Shanghai); host or cells: 50-donor pooled human liver microsomes
T2 sequence (P08684 whole entry): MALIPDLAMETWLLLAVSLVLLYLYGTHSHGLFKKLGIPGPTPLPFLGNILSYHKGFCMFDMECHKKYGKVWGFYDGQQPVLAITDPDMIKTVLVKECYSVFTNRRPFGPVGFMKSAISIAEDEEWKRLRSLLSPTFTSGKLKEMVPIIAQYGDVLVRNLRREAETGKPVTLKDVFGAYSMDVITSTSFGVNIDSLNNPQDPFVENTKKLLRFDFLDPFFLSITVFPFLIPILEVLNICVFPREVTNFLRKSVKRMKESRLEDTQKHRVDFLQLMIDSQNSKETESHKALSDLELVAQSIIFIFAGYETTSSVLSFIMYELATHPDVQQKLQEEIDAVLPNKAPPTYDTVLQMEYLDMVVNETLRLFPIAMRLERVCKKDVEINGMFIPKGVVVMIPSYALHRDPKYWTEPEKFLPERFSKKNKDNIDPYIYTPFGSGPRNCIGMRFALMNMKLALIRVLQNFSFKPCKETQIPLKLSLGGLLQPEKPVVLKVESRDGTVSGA
Description: N = 2–3 independent experiments. […] N = 2–3 independent experiments.
Source parameters were as follows, gas temp (350 °C), gas flow (8 L/min), nebulizer (35 psi) and capillary (4000 V). […] Milli-Q with 0.1% formic acid was used as the aqueous phase.

CC(=O)O[C@H]1C(=O)[C@@]2(C)[C@H]([C@H](OC(=O)c3ccccc3)[C@]3(O)C[C@H](OC(=O)[C@H](O)[C@@H](NC(=O)c4ccccc4)c4ccccc4)C(C)=C1C3(C)C)[C@]1(OC(C)=O)CO[C@@H]1C[C@@H]2O [PTX, paclitaxel]
Tumor doubling time (Td) ([1]; PTX 12 mg/kg I.V., q2d × 12): 10 days
fold reduction in tumor volume ([1]; PTX 24 mg/kg I.V.): 2.5 fold
weight loss ([1]; PTX 24 mg/kg I.V.): > 15%
No. of animal death ([1]; PTX 24 mg/kg I.V., q2d × 12): 4 out of 6
Tumor inhibition on day 31 (%) [2]: 97%

O=c1cc(-c2ccc(OCCOCCNCc3ccccc3)cc2)oc2ccccc12 [FM04, 2-(4-(2-(2-(benzylamino)ethoxy)ethoxy)phenyl)-4H-chromen-4-one]
reversal of MRP1-mediated DOX resistance (MRP1; 1 μM, 2008/MRP1): did not reverse
RF, DOX in 2008/MRP1 (MRP1; IC50 without modulator / IC50 with 1 µM modulator): 1.2
IC50 at 3 days [3]: 10.3 ± 0.2 µM
reduction in p3-OHP (CYP3A4; FM04 10 μM): 42%
reduction in p3-OHP (CYP3A4; FM04 20 μM): 51%
